Converted amounts (≈) assume the structure as drawn.
Key:
S. aureus NCTC 4163 = experiment: MIC, twofold microdilution, standard strain; format: cell-based; settings: Staphylococcus aureus, NCTC4163, 18 h
S. aureus ATCC 25923 = experiment: MIC, twofold microdilution, standard strain; format: cell-based; settings: Staphylococcus aureus, ATCC25923, 18 h
S. aureus ATCC 6538 = experiment: MIC, twofold microdilution, standard strain; format: cell-based, Staphylococcus aureus; settings: for MIC: Staphylococcus aureus, ATCC6538, standard strain, 18 h; for MIC used in biofilm eradication assay, S. aureus 6538: Table S1, MIC
S. aureus ATCC 29213 = experiment: MIC, twofold microdilution, standard strain; format: cell-based; settings: Staphylococcus aureus, ATCC29213, 18 h
[1] = system: S. epidermidis ATCC 12228; experiment: MIC, twofold microdilution, standard strain; format: cell-based; settings: Staphylococcus epidermidis, ATCC12228, 18 h
[2] = system: S. epidermidis ATCC 35984; experiment: MIC, twofold microdilution, standard strain; format: cell-based; settings: Staphylococcus epidermidis, ATCC35984, 18 h
P. aeruginosa ATCC 15442 = experiment: MIC, twofold microdilution, standard strain; format: cell-based, Pseudomonas aeruginosa; settings: for MIC: Pseudomonas aeruginosa, ATCC15442, standard strain, 18 h; for MIC used in biofilm eradication assay, P. aeruginosa 15442: Table S1, MIC
E. coli ATCC 25922 = experiment: MIC, twofold microdilution, standard strain; format: cell-based, Escherichia coli; settings: for MIC: Escherichia coli, ATCC25922, standard strain, 18 h; for MIC used in biofilm eradication assay, E. coli ATCC 25922: Table S1, MIC
S. aureus 180 = experiment: MIC, twofold microdilution, clinical strain; format: cell-based; settings: Staphylococcus aureus, 18 h
S. aureus 5595 = experiment: MIC, twofold microdilution, clinical strain; format: cell-based; settings: Staphylococcus aureus, 18 h
S. aureus T5595 = experiment: MIC, twofold microdilution, clinical strain; format: cell-based, Staphylococcus aureus; settings: Staphylococcus aureus, T5595, 18 h
S. aureus T5591 = experiment: MIC, twofold microdilution, clinical strain; format: cell-based, Staphylococcus aureus; settings: Staphylococcus aureus, T5591, 18 h
S. epidermidis 4341 = experiment: MIC, twofold microdilution, clinical strain; format: cell-based; settings: Staphylococcus epidermidis, 18 h
S. epidermidis 5253 = experiment: MIC, twofold microdilution, clinical strain; format: cell-based, Staphylococcus epidermidis; settings: Staphylococcus epidermidis, 5253, 18 h
S. epidermidis KR4243/1 = experiment: MIC, twofold microdilution, clinical strain; format: cell-based; settings: Staphylococcus epidermidis, 18 h
S. pasteuri KR 4358 = experiment: MIC, twofold microdilution, clinical strain; format: cell-based; settings: Staphylococcus pasteuri, KR4358, 18 h
P. aeruginosa 37 = experiment: MIC, twofold microdilution, clinical strain; format: cell-based; settings: Pseudomonas aeruginosa, 18 h
P. aeruginosa 659 = experiment: MIC, twofold microdilution, clinical strain; format: cell-based; settings: Pseudomonas aeruginosa, 18 h
E. coli 951 = experiment: MIC, twofold microdilution, clinical strain; format: cell-based; settings: Escherichia coli, 18 h
E. coli 520 = experiment: MIC, twofold microdilution, clinical strain; format: cell-based; settings: Escherichia coli, 18 h
E. coli 600 = experiment: MIC, twofold microdilution, clinical strain; format: cell-based, Escherichia coli; settings: Escherichia coli, 600, 18 h
E. cloacae 8 = experiment: MIC, twofold microdilution, clinical strain; format: cell-based, Escherichia cloacae; settings: Enterobacter cloacae, 8; clinical strain, 18 h
K. pneumoniae 28 = experiment: MIC, twofold microdilution, clinical strain; format: cell-based; settings: Klebsiella pneumoniae, 18 h
K. pneumoniae 510 = experiment: MIC, twofold microdilution, clinical strain; format: cell-based, Klebsiella pneumoniae; settings: for share of the reference (CP) activity: Klebsiella pneumoniae rods; for MIC: Klebsiella pneumoniae, 510, clinical strain, 18 h
M. tuberculosis H37Rv = experiment: Tuberculostatic activity, Microplate Alamar Blue Assay (MIC); format: cell-based, Mycobacterium tuberculosis; settings: Mycobacterium tuberculosis, H37RV; MABA; read-out: MIC M. tuberculosis H37Rv
[3] = system: M. tuberculosis Spec. 192; experiment: as above; format: cell-based; settings: Mycobacterium tuberculosis, MABA, read-out: MIC M. tuberculosis Spec. 192 (sensitive to tuberculostatics)
PC3 cells = experiment: MTT assay, cytotoxic activity; format: cell-based, human; settings: for IC50: Homo sapiens, PC-3, 72 h, MTT, 72 h
Procedure, shortened: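 Cytotoxicity readout: relative MTT level (%), i.e. absorbance of compound-treated PC3 cells divided by that of untreated controls, ×100. Cultures were kept in a humidified 37 °C, 5% CO2 incubator.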

[4] = MTT assay, cytotoxic activity; format: cell-based; settings: human, HaCaT cells (immortal keratinocytes); MTT, 72 h, normal cell line; read-out: IC50 HaCaT
Procedure, shortened: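 Viability was calculated as A/B × 100%, with A the absorbance of treated samples and B that of untreated controls, from MTT reduction. Cells were cultured in a humidified 37 °C/5% CO2 incubator.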

[5] = system: clinical bacterial strains; experiment: MIC, clinical isolates as groups of strains; format: cell-based; settings: S. aureus 180 and 5595

SMILES | MIC (S. aureus NCTC 4163) | MIC (S. aureus ATCC 25923) | MIC (S. aureus ATCC 6538) | MIC (S. aureus ATCC 29213) | MIC [1] | MIC [2] | MIC (P. aeruginosa ATCC 15442) | MIC (E. coli ATCC 25922) | MIC (S. aureus 180) | MIC (S. aureus 5595) | MIC (S. aureus T5595) | MIC (S. aureus T5591) | MIC (S. epidermidis 4341) | MIC (S. epidermidis 5253) | MIC (S. epidermidis KR4243/1) | MIC (S. pasteuri KR 4358) | MIC (P. aeruginosa 37) | MIC (P. aeruginosa 659) | MIC (E. coli 951) | MIC (E. coli 520) | also measured
O=C(O)c1cn(C2CC2)c2cc(N3CCN(C(=O)CCCBr)CC3)c(F)cc2c1=O [Compound 10, 7-[4-(4-Bromobutyryl)-piperazin-1-yl]-1-cyclopropyl-6-fluoro-4-oxo-1,4-dihydro-quinoline-3-carboxylic Acid] | 0.2 µg/mL (≈ 0.416 µM) | 0.4 µg/mL (≈ 0.833 µM) | 0.2 µg/mL (≈ 0.416 µM) | 0.4 µg/mL (≈ 0.833 µM) | 0.2 µg/mL (≈ 0.416 µM) | 0.1 µg/mL (≈ 0.208 µM) | 0.1 µg/mL (≈ 0.208 µM) | 0.025 µg/mL (≈ 0.052 µM) | 0.8 µg/mL (≈ 1.67 µM) | 0.8 µg/mL (≈ 1.67 µM) | 0.8 µg/mL (≈ 1.67 µM) | 0.8 µg/mL (≈ 1.67 µM) | 25.6 µg/mL (≈ 53.3 µM) | > 25.6 µg/mL | 0.4 µg/mL (≈ 0.833 µM) | 0.2 µg/mL (≈ 0.416 µM) | 0.8 µg/mL (≈ 1.67 µM) | 0.8 µg/mL (≈ 1.67 µM) | 0.4 µg/mL (≈ 0.833 µM) | 0.1 µg/mL (≈ 0.208 µM) | MIC used in biofilm eradication assay, S. aureus 6538 (S. aureus ATCC 6538): 0.200 µg/mL (≈ 0.416 µM); MIC used in biofilm eradication assay, P. aeruginosa 15442 (P. aeruginosa ATCC 15442): 0.100 µg/mL (≈ 0.208 µM); MIC used in biofilm eradication assay, E. coli ATCC 25922 (E. coli ATCC 25922): 0.025 µg/mL (≈ 0.052 µM); MIC (E. coli 600): 0.05 µg/mL (≈ 0.104 µM); MIC (E. cloacae 8): 0.05 µg/mL (≈ 0.104 µM); MIC (K. pneumoniae 28): > 25.6 µg/mL; share of the reference (CP) activity (K. pneumoniae 510): 62.5%; MIC (K. pneumoniae 510): 6.4 µg/mL (≈ 13.3 µM); MIC (M. tuberculosis H37Rv): 1 µg/mL (≈ 2.08 µM); MIC [3]: 0.5 µg/mL (≈ 1.04 µM); IC50 (PC3 cells): 84.1 ± 7.3 µM; IC50 at 72 h [4]: 89.1 ± 2.1 µM; share of CP inhibitory activity [5]: 62.5%
O=C(O)c1cn(C2CC2)c2cc(N3CCN(C(=O)CCCCBr)CC3)c(F)cc2c1=O [Compound 11, 7-[4-(5-Bromopentanoyl)-piperazin-1-yl]-1-cyclopropyl-6-fluoro-4-oxo-1,4-dihydro-quinoline-3-carboxylic Acid] | 0.1 µg/mL (≈ 0.202 µM) | 0.4 µg/mL (≈ 0.809 µM) | 0.1 µg/mL (≈ 0.202 µM) | 0.2 µg/mL (≈ 0.405 µM) | 0.1 µg/mL (≈ 0.202 µM) | 0.1 µg/mL (≈ 0.202 µM) | 0.1 µg/mL (≈ 0.202 µM) | 0.025 µg/mL (≈ 0.0506 µM) | 0.8 µg/mL (≈ 1.62 µM) | 0.8 µg/mL (≈ 1.62 µM) | 0.8 µg/mL (≈ 1.62 µM) | 0.8 µg/mL (≈ 1.62 µM) | 25.6 µg/mL (≈ 51.8 µM) | > 25.6 µg/mL | 0.4 µg/mL (≈ 0.809 µM) | 0.2 µg/mL (≈ 0.405 µM) | 0.8 µg/mL (≈ 1.62 µM) | 0.8 µg/mL (≈ 1.62 µM) | 0.4 µg/mL (≈ 0.809 µM) | 0.1 µg/mL (≈ 0.202 µM) | MIC used in biofilm eradication assay, S. aureus 6538 (S. aureus ATCC 6538): 0.100 µg/mL (≈ 0.202 µM); MIC used in biofilm eradication assay, P. aeruginosa 15442 (P. aeruginosa ATCC 15442): 0.100 µg/mL (≈ 0.202 µM); MIC used in biofilm eradication assay, E. coli ATCC 25922 (E. coli ATCC 25922): 0.025 µg/mL (≈ 0.0506 µM); MIC (E. coli 600): 0.05 µg/mL (≈ 0.101 µM); MIC (E. cloacae 8): 0.05 µg/mL (≈ 0.101 µM); MIC (K. pneumoniae 28): > 25.6 µg/mL; share of the reference (CP) activity (K. pneumoniae 510): 62.5%; MIC (K. pneumoniae 510): 6.4 µg/mL (≈ 12.9 µM); MIC (M. tuberculosis H37Rv): 0.5 µg/mL (≈ 1.01 µM); MIC [3]: 0.5 µg/mL (≈ 1.01 µM); IC50 (PC3 cells): 81.7 ± 8.9 µM; IC50 at 72 h [4]: 80.1 ± 8.1 µM; share of CP inhibitory activity [5]: 62.5%
O=C(O)c1cn(C2CC2)c2cc(N3CCN(CCCCCCCCCCC(=O)N4CCN(c5cc6c(cc5F)c(=O)c(C(=O)O)cn6C5CC5)CC4)CC3)c(F)cc2c1=O [Compound 21, CP–Undecanoyl–CP Dimer] | 12.8 µg/mL (≈ 15.4 µM) | 12.8 µg/mL (≈ 15.4 µM) | 12.8 µg/mL (≈ 15.4 µM) | 12.8 µg/mL (≈ 15.4 µM) | 25.6 µg/mL (≈ 30.9 µM) | 12.8 µg/mL (≈ 15.4 µM) | > 25.6 µg/mL | 25.6 µg/mL (≈ 30.9 µM) | > 25.6 µg/mL | > 25.6 µg/mL | > 25.6 µg/mL | > 25.6 µg/mL | > 25.6 µg/mL | > 25.6 µg/mL | > 25.6 µg/mL | > 25.6 µg/mL | > 25.6 µg/mL | > 25.6 µg/mL | > 25.6 µg/mL | > 25.6 µg/mL | MIC (E. coli 600): > 25.6 µg/mL; MIC (E. cloacae 8): > 25.6 µg/mL; MIC (K. pneumoniae 28): > 25.6 µg/mL; MIC (K. pneumoniae 510): > 25.6 µg/mL; MIC (M. tuberculosis H37Rv): 2 µg/mL (≈ 2.41 µM); MIC [3]: 2 µg/mL (≈ 2.41 µM); IC50 (PC3 cells): 4.8 ± 0.1 µM; fold stronger cytotoxic properties than cisplatin (PC3 cells; PC3): 2.75 fold; IC50 at 72 h [4]: 73.2 ± 10.1 µM

Reference: publication PMC10233829 (ACS Omega, 2023)
